Literature values, collected in patent US10610528B2, “Solid oral film dosage forms and methods for making same” (Intelgenx Corp., priority 2009, dated 2020).

- Solubility in water: practically insoluble in water
Compound: CN1CC(=O)N2[C@H](c3ccc4c(c3)OCO4)c3[nH]c4ccccc4c3C[C@@H]2C1=O [Tadalafil]
